From patent US9517993B2, “Antagonists of the toll-like receptor 1/2 complex” (THE REGENTS OF THE UNIVERSITY OF COLORADO, a body corporate, priority 2012, dated 2016)

Experiments:
[1] = biological target: T1, TLR1/2 (Homo sapiens, UniProt O60603+Q15399); conditions: read-out: known affinity (Kd); cited from earlier work
Target sequence in this assay (Q15399 25-786): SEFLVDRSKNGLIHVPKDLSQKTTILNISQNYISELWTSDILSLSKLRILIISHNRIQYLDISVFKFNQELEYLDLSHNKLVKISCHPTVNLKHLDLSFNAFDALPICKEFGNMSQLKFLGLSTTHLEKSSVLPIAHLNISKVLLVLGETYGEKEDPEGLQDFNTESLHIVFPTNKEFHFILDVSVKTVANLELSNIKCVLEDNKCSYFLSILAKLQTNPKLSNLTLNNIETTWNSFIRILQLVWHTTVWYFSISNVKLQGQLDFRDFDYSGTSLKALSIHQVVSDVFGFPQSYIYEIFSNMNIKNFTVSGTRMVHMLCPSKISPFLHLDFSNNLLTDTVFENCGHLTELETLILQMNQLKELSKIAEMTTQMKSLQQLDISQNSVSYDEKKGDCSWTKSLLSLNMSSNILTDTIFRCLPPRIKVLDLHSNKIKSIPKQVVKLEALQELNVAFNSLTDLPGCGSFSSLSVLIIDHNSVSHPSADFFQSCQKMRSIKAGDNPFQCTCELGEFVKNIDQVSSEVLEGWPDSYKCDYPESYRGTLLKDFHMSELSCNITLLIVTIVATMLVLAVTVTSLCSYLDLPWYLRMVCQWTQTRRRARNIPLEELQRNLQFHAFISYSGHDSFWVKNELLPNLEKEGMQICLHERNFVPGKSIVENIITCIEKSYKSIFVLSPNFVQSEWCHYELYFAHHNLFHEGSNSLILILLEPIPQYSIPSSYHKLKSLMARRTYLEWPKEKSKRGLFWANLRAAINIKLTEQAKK
Target sequence in this assay (O60603 21-784): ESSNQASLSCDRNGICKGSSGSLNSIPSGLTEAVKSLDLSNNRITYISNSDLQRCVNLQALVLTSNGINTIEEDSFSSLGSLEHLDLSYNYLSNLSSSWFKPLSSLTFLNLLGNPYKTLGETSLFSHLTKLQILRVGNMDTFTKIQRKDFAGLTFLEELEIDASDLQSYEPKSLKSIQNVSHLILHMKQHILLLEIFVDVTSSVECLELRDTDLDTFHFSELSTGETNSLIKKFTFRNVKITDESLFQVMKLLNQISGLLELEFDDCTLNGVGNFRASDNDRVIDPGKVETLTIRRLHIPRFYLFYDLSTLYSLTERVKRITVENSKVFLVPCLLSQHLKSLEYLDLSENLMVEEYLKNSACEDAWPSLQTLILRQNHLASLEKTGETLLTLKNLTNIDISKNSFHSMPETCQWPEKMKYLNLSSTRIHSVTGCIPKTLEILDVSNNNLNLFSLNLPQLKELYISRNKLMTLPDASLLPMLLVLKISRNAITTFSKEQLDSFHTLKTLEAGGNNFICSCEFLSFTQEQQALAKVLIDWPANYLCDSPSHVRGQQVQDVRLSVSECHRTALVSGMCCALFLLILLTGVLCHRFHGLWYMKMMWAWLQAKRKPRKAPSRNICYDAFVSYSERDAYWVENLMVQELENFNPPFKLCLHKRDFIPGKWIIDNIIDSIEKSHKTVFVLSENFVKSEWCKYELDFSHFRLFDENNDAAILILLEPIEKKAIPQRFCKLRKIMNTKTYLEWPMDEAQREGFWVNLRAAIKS

[2] = biological target: T2, TLR1/2 (Mus musculus, UniProt Q9EPQ1+Q9QUN7); assay: In vitro TLR1/2 inhibition assay (nitric oxide, Pam3CSK4-activated RAW 264.7 macrophages); type: cell-based; conditions: RAW 264.7 NO assay; for TLR1/2 inhibitory activity (in words, SAR and specificity): Pam3CSK4
T2 construct: production of NO in RAW 264.7 macrophage cells; endogenous in cells; host or cells: RAW 264.7
T2 sequence (Q9EPQ1 26-795): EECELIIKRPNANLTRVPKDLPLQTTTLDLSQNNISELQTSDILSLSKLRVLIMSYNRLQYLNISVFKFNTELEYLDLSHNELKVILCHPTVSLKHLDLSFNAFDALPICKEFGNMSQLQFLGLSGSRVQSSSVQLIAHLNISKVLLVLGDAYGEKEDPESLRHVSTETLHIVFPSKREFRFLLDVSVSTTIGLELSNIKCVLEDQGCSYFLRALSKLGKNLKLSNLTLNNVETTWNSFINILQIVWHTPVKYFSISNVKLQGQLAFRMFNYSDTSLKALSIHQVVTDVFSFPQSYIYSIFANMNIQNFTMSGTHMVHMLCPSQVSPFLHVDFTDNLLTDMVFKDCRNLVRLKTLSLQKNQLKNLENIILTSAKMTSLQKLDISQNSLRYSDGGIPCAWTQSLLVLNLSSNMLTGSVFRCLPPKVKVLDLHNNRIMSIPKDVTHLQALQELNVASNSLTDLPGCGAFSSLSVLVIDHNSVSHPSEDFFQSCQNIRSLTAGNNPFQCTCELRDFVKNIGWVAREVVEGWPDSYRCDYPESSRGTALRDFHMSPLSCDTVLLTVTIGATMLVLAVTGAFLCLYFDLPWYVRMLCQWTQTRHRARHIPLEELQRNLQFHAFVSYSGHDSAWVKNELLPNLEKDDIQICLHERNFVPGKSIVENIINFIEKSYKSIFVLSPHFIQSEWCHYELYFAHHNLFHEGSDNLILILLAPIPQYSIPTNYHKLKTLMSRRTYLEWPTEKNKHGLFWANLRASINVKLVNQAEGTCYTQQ
T2 sequence (Q9QUN7 25-784): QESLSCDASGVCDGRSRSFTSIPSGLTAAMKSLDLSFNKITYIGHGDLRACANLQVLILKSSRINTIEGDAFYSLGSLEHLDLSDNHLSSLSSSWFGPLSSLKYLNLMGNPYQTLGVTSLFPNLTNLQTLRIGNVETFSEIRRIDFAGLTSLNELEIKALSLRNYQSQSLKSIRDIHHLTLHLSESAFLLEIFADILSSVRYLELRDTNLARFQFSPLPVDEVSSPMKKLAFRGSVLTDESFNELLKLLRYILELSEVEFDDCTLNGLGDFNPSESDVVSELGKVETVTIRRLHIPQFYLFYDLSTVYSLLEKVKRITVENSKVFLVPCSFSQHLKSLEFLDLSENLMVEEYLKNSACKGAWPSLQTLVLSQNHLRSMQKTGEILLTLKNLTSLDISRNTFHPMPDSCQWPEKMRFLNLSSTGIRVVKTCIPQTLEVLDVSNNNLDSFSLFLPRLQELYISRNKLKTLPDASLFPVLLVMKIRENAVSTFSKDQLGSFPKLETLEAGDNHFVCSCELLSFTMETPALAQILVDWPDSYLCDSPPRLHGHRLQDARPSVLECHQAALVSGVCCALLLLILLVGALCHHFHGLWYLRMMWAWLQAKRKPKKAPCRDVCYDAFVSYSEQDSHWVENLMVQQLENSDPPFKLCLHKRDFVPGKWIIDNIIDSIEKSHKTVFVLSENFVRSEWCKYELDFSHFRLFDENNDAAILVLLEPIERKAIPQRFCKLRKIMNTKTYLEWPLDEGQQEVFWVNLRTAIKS
Procedure: To identify novel TLR1/2 complex inhibitors, a cell-based assay was employed to screen the NCI-2 diversity small-molecule library. This 1,363 compound library was chosen from the larger NCI library, which has more than 140,000 compounds, on the basis of availability, purity, and other pharmacological features, such as relative rigidity, number of rotatable bonds and chiral centers, the absence of obvious leaving groups and weakly bounded heteroatoms, etc. Screening was performed in a 96-well plate format using a previously established high-throughput nitric oxide (NO) assay. See e.g. Cheng et al., Small molecule inhibitors of the TLR3/dsRNA complex, J. Am. Chem. Soc. (2011), 133:3764-67, which is herein incorporated by reference in its entirety. Briefly, synthetic triacylated lipoprotein Pam3CSK4 was employed to selectively activate TLR1/2 signaling, resulting in the expression of inducible nitric oxide synthase (iNOS) and the production of NO in RAW 264.7 macrophage cells. NO levels were monitored as an indicator of Pam3CSK4-induced TLR1/2 activation to evaluate the compound's inhibitory activity.
RAW 264.7 (Mouse leukaemic monocyte macrophage cell line) cells were grown in RPMI 1640 medium, supplemented with 10% FBS, penicillin (100 U/mL) and streptomycin ([…]). RAW cells were then planted in 96-well plates at 80,000 cells per well and grown for 24 h in the media descried previously at 37° C. in a 5% CO2 humidified incubator. After 24 h, non-adherent cells and media were removed and replaced with fresh unsupplemented RPMI 1640 medium. The adherent macrophages were treated with Pam3CSK4 (CAS No. 112208-00-1; a synthetic triacylated lipopeptide (LP) that mimics the acylated amino terminus of bacterial LPs) (200 ng/mL) (Invivogen, USA), an agonist of TLR1/2, and then added different concentrates of potential inhibitor. Two rows were only treated with Pam3CSK4 as control. Plates were then incubated for an additional 24 h. Following incubation 100 μL of media was removed and added to flat black 96-well microfluor plates (Thermo Scientific, MA, USA). To each well, 10 μL of 2,3-diaminonaphthalene (0.05 mg/mL in 0.62 M aqueous HCl solution) was added and incubated for 15 min in the dark. The reaction was quenched by addition of 5 μL of a 3 M aqueous NaOH solution and the plate was read on Beckman Coulter DTX880 reader (Beckman Coulter, Calif., USA) with excitation at 365 nm and emission at 450 nm. The nitrite (a stable metabolite of nitric oxide) concentration was determined from a nitrite standard curve. The inhibition rate (%) of NO release was determined using the following formula: Inhibition (%)=[Pam3CSK4(OD450) […]]/[Pam3CSK4 (OD450)−Control (OD450)]×100. The IC50 values for both inhibition and cytotoxicity were determined graphically using software Origin v7.5.

[3] = biological target: T1, TLR1/2; assay: Fluorescence anisotropy competition assay with rhodamine-labeled Pam3CSK4; type: binding; set-up: His; TLR2 made in house; host or cells: baculovirus; Sf-9 for virus, High Five insect cells for expression (TLR2); conditions: negative control
Excerpt: The TLR2 protein was expressed in the baculovirus insect cell expression system using the methods described by Kuroki et al. See Iwaki et al., The extracellular Toll-like receptor 2 domain directly binds peptidoglycan derived from Staphylococcus aureus, J. Biol Chem (2002), 277:24315-20, which is herein incorporated by reference in its entirety. The activity of the TLR2 protein was validated by the fluorescence anisotropy assay. […] Good fitting (R2>0.98) inferred that compound 17 and Pam3CSK4 compete for the same binding site on the TLR1/2 dimeric surface.
In 500 μL Tris buffer (pH=7.2) add 10 μL, (1 ng/mL) rhodamine-labeled Pam3CSK4, test the fluorescence anisotropy at excitation of 549 nm and emission of 566 nm (Horiba Fluorolog 3). And 5 μL (20 μM) TLR1 (R &D) and 5 μL, (20 μM) TLR2 was added into the above buffer, then retest the anisotropy. Following, compound 17 or compound 6 was added in the buffer from the concentration of 0 to 6 μM, and the fluorescence anisotropy was tested in the corresponding concentration.
Fluorescence polarization experiments were performed at 25° C. using a Horiba Fluorolog-3 fluorometer. For direct binding measurements, serial dilutions of TLR1 (R&D, MN) and TLR2 were made in Tris buffer (pH=7.2), and an aliquot (10 μL) of 1 ng/mL rhodamine labeled Pam3CSK4, was added to a total volume of 500 μL. The competition binding solution was incubated for 30 minutes at 25° C. Serial dilutions of compound 17 or compound 6 were incubated with 20 μM TLR1, 20 μM TLR2 and rhodamine-labeled Pam3CSK4 for 30 min at room temperature.
Regression analysis was carried out using Origin 7.5 (OriginLab) ligand binding macro module. […] Equation (1): y=min+(max−min)/(1+10^x-logIC50)(total binding, x=log concentration of and rhodamine-labeled Pam3CSK4, min=nonspecific binding, max=maximum binding in absence of ligand). Equation (2): Ki=IC50/(1+[L]/Kd) ([L]=concentration of rhodamine-labeled Pam3CSK4).
Target sequence in this assay (Q15399 25-580 limits assumed): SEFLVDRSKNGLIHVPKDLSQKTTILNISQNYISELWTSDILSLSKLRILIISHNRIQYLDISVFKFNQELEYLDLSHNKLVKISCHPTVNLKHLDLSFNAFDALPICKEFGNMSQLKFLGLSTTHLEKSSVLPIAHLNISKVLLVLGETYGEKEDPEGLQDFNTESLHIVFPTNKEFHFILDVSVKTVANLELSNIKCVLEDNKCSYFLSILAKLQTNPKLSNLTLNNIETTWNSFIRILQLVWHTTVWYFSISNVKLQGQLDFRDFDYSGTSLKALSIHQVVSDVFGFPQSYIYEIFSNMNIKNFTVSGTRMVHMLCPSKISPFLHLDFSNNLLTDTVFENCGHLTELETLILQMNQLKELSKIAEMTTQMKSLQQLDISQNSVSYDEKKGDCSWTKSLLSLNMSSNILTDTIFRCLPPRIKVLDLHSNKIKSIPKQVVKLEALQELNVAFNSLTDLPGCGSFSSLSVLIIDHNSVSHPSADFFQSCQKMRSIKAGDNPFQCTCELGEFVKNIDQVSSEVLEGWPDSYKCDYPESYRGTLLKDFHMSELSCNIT
Target sequence in this assay (O60603 21-588 limits assumed): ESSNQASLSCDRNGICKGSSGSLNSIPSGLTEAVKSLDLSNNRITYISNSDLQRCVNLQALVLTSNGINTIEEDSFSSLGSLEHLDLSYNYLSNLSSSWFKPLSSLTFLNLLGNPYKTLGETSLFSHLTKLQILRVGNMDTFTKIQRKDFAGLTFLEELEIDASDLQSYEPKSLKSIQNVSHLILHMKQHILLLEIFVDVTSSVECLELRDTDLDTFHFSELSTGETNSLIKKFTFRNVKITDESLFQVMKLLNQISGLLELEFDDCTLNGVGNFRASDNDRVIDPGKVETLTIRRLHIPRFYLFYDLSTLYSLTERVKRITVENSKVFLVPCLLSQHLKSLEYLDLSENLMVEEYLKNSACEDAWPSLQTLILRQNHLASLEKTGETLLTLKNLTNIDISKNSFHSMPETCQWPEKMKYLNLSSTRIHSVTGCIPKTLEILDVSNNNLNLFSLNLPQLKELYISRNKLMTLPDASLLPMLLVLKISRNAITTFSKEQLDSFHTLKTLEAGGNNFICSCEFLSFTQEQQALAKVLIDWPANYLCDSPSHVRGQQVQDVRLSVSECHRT

Compound	TLR1/2 inhibitory activity (in words, SAR and specificity) [2]	also measured
Pam3CSK4		Kd [1]: 1.2 nM
COc1cc2cc(C(=O)O)cc(O)c(=O)c2c(O)c1O [compound 10, 3,4,6-trihydroxy-2-methoxy-5-oxo-5H-benzo[7]annulene-8-carboxylic acid]		decrease of TLR1/2 inhibitory activity versus comparator ([2]; SAR comparison): six-fold
COc1cc2cccc(O)c(=O)c2c(O)c1O [compound 4, 3,4,6-trihydroxy-2-methoxy-5H-benzo[7]annulen-5-one]	no significant influence to its activity	
COc1cc2cccc(OC)c(=O)c2c(OC)c1OC [compound 6, 2,3,4,6-tetramethoxy-5H-benzo[7]annulen-5-one]	significant decrease of inhibition	IC50 [3]: > 40000 nM
COC(=O)c1cc(O)c(=O)c2c(O)c(O)c(OC)cc2c1 [compound 11, Methyl 3,4,6-trihydroxy-2-methoxy-5-oxo-5H-benzo[7]annulene-8-carboxylate]	returned the activity to the NCI35676 level	

Second part, led by results:

TLR1/2 inhibitory activity (in words, SAR and specificity) [2]	Compound	also measured
activity slightly decreased	CCCCCCNC(=O)c1cc(O)c(=O)c2c(O)c(O)c(OC)cc2c1 [compound 22, N-hexyl-3,4,6-trihydroxy-2-methoxy-5-oxo-5H-benzo[7]annulene-8-carboxamide]	
no significant change in activity	COc1cc2cc(CO)cc(O)c(=O)c2c(O)c1O [compound 23, 3,4,6-trihydroxy-8-(hydroxymethyl)-2-methoxy-5H-benzo[7]annulen-5-one]	
no significant change in activity	COc1cc2cc(C(=O)Nc3ccccc3C)cc(O)c(=O)c2c(O)c1O [compound 24, 3,4,6-trihydroxy-2-methoxy-5-oxo-N-o-tolyl-5H-benzo[7]annulene-8-carboxamide]	
